Measurements: patent publication EP0888056B1, “HERBICIDAL MIXTURES” (BASF AKTIENGESELLSCHAFT, priority 1996, dated 1998)
Where “and” joins values, the source holds several entries; their conditions need not be identical. Identical values can stand only once.

Experiments:
Assay type in all cases: in vivo
Galium aparine = assay: greenhouse herbicidal trial, post-emergence application, assessment 21 days after treatment
Protocol: (§1) The trials are carried out under greenhouse conditions in pre- and post-emergence applications. The plant seeds are sown in pots containing a loamy sand soil (0.5 I). The herbicides are applied as single treatments, or in a combination comprising a BAP compound and a non-BAP compound as designated, before or after emergence of weeds and crop. The herbicidal performance is assessed as percent damage in comparison to the untreated control plants. The assessment is done 21 days after the treatment. Wheat and barley are treated at the 3-4 leaf stage, the broad-leaf weeds at the 2-4 leaf stage and annual grasses at the 2-3 leaf stage.

Matricaria inodora = assay: as above
Protocol: as §1

Myosotis arvensis = assay: as above
Protocol: as §1

Papaver rhoeas = assay: as above
Protocol: as §1

Lamium purpureum = assay: as above
Protocol: as §1

Stellaria media = assay: as above
Protocol: as §1

Polygonum convolvulus = assay: as above
Protocol: as §1

Polygonum lapathifolium = assay: as above
Protocol: as §1

Veronica persica = assay: as above
Protocol: as §1

Alopecurus myosuroides [1] = assay: as above
Protocol: as §1

Lolium perenne = assay: as above
Protocol: as §1

Poa annua = assay: as above
Protocol: as §1

Setaria viridis = assay: as above
Protocol: as §1

Viola arvensis = assay: as above
Protocol: as §1

Alopecurus myosuroides [2] = assay: greenhouse herbicidal trial, pre-emergence application, assessment 21 days after treatment
Protocol: as §1

[3] = Galium aparine (1.whorl), 60 g a.i./ha
[4] = Galium aparine (2.whorl), 60 g a.i./ha
[5] = Galium aparine (1.whorl), 120 g a.i./ha
[6] = Galium aparine (2.whorl), 120 g a.i./ha
[7] = Galium aparine (1.whorl), 15 g a.i./ha
[8] = Galium aparine (1.whorl), 30 g a.i./ha
[9] = Galium aparine (2.whorl), 15 g a.i./ha

N#Cc1cc(I)c(O)c(I)c1 [loxynil, reference compound]
% Control (Galium aparine; [3]): 40%
% Control (Galium aparine; [4]): 5%
% Control (Matricaria inodora; 60 g a.i./ha): 89%
% Control (Myosotis arvensis; 60 g a.i./ha): 37%
% Control (Papaver rhoeas; 60 g a.i./ha): 0%

CCCCCCCC(=O)Oc1c(Br)cc(C#N)cc1Br [Bromoxynil, Bromoxynil Octanoate, reference compound]
% Control (Galium aparine; [3]): 70%
% Control (Galium aparine; [5]): 75%
% Control (Galium aparine; [4]): 57%
% Control (Galium aparine; [6]): 77%
% Control (Lamium purpureum; 60 g a.i./ha): 17%
% Control (Papaver rhoeas; 60 g a.i./ha): 79%
% Control (Stellaria media; 60 g a.i./ha): 0%

Cc1cc(Oc2cc(C(F)(F)F)nn2C)nc(Oc2cc(C(F)(F)F)nn2C)c1 [Compound B]
% Control (Galium aparine; Galium aparine (1.whorl), 15 9 a.i./ha): 80%
% Control (Galium aparine; [7]): 67% and 40%
% Control (Galium aparine; [8]): 83% and 52%
% Control (Galium aparine; Galium aparine (2.whorl), 15 9 a.i./ha): 60%
% Control (Galium aparine; [9]): 45% and 37%
% Control (Galium aparine; Galium aparine (2.whorl), 30 g a.i./ha): 67% and 65% and 45%
% Control (Galium aparine; Galium aparine (3.whorl), 15 g a.i./ha): 40%
% Control (Galium aparine; Galium aparine (3.whorl), 30 g a.i./ha): 40%
% Control (Lamium purpureum; 7.5 g a.i./ha): 70%
% Control (Matricaria inodora; 15 9 a.i./ha): 7%
% Control (Matricaria inodora; 15 g a.i./ha): 20%
% Control (Matricaria inodora; 30 g a.i./ha): 22%
% Control (Papaver rhoeas; 7.5 g a.i./ha): 7%
% Control (Polygonum convolvulus; 15 g a.i./ha): 7%
% Control (Polygonum convolvulus; 30 g a.i./ha): 15% and 7%
% Control (Polygonum lapathifolium; 15 g a.i./ha): 17%
% Control (Stellaria media; 7.5 g a.i./ha): 25%
% Control (Stellaria media; 15 g a.i./ha): 47% and 45% and 27%
% Control (Stellaria media; 30 g a.i./ha): 62% and 42%
% Control (Veronica persica; 7.5 g a.i./ha): 65%
% Control (Veronica persica; 15 g a.i./ha): 77%

CC(C)c1ccc(NC(=O)N(C)C)cc1 [Isoproturon, reference compound]
% control (Alopecurus myosuroides [1]; 150 g a.i./ha): 30%
% control (Alopecurus myosuroides [1]; 300 g a.i./ha): 73%
% Control (Galium aparine; Galium aparine (2.whorl), 1920 g a.i./ha): 0%
% Control (Lamium purpureum; 1920 g a.i./ha): 3%
% control (Lolium perenne; 150 g a.i./ha): 10%
% control (Lolium perenne; 300 g a.i./ha): 40%
% Control (Myosotis arvensis; 1920 g a.i./ha): 25%
% control (Poa annua; 150 g a.i./ha): 65%
% control (Poa annua; 300 g a.i./ha): 83%
% Control (Polygonum convolvulus; 1920 g a.i./ha): 4%
% control (Setaria viridis; 150 g a.i./ha): 58%
% Control (Veronica persica; 1920 g a.i./ha): 0%
% Control (Viola arvensis; 1920 g a.i./ha): 65%
% Control (Alopecurus myosuroides [2]; 120 g a.i./ha): 75%

CCC(CC)Nc1c([N+](=O)[O-])cc(C)c(C)c1[N+](=O)[O-] [Pendimethalin]
% Control (Alopecurus myosuroides [2]; 450 g a.i./ha): 35%
% Control (Alopecurus myosuroides [2]; 900 g a.i./ha): 55%

Cc1cc(Cl)ccc1O[C@H](C)C(=O)O [CMPP-P, (R)-2-(4-chloro-2-methylphenoxy) proprionic acid]
% Control (Lamium purpureum; 480 g a.i./ha): 67%
% Control (Papaver rhoeas; 480 g a.i./ha): 47%
% Control (Polygonum convolvulus; 480 g a.i./ha): 40%

Cn1nc(C(F)(F)F)cc1Oc1cccc(Oc2cc(C(F)(F)F)nn2C)n1 [Compound A]
% Control (Galium aparine; [8]): 80% and 57%
% Control (Galium aparine; Galium aparine (1.whorl), 50 g a.i./ha): 50%
% Control (Galium aparine; [3]): 67%
% Control (Galium aparine; Galium aparine (2.whorl), 50 g a.i./ha): 30%
% Control (Galium aparine; [4]): 42%
% Control (Lamium purpureum; 30 g a.i./ha): 65% and 62% and 35%
% Control (Matricaria inodora; 15 g a.i./ha): 1%
% Control (Matricaria inodora; 30 g a.i./ha): 1%
% Control (Myosotis arvensis; 15 g a.i./ha): 72%
% Control (Myosotis arvensis; 30 g a.i./ha): 57%
% Control (Papaver rhoeas; 15 g a.i./ha): 79%
% Control (Papaver rhoeas; 60 g a.i./ha): 10%
% Control (Stellaria media; 30 g a.i./ha): 45% and 65%
% Control (Veronica persica; 30 g a.i./ha): 81%
% Control (Viola arvensis; 30 g a.i./ha): 75%

CC(Oc1ccc(Oc2nc3ccc(Cl)cc3o2)cc1)C(=O)O (centres unmarked) [Fenoxaprop, reference compound]
% Control (Setaria viridis; 15 g a.i./ha): 62%
% Control (Setaria viridis; 30 g a.i./ha): 72%
% Control (Setaria viridis; 60 g a.i./ha): 77%

Cc1cc(OCc2ccccc2)nc(Oc2cc(C(F)(F)F)nn2C)c1 [Compound D]
% Control (Alopecurus myosuroides [2]; 15 g a.i./ha): 60% and 57%

Cc1cc(OCc2ccc(F)cc2)nc(Oc2cc(C(F)(F)F)nn2C)c1 [Compound C]
% control (Alopecurus myosuroides [1]; 12.5 g a.i./ha): 65%
% control (Alopecurus myosuroides [1]; 25 g a.i./ha): 83%
% control (Alopecurus myosuroides [1]; 50 g a.i./ha): 88%
% control (Lolium perenne; 12.5 g a.i./ha): 38%
% control (Lolium perenne; 25 g a.i./ha): 65%
% control (Lolium perenne; 50 g a.i./ha): 78%
% control (Poa annua; 12.5 g a.i./ha): 75%
% Control (Setaria viridis; 12.5 g a.i./ha): 30%
% control (Setaria viridis; 12.5 g a.i./ha): 30%
% control (Setaria viridis; 25 g a.i./ha): 55%
% control (Setaria viridis; 50 g a.i./ha): 75%

COc1cc(OC)nc(NC(=O)NS(=O)(=O)N(C)S(C)(=O)=O)n1 [Amidosulfuron, reference compound]
% Control (Galium aparine; [7]): 40%
% Control (Galium aparine; [9]): 20%
% Control (Lamium purpureum; 30 g a.i./ha): 0%
% Control (Papaver rhoeas; 30 g a.i./ha): 15%
% Control (Stellaria media; 30 g a.i./ha): 50%
% Control (Veronica persica; 30 g a.i./ha): 0%

CCNc1nc(Cl)nc(NC(C)(C)C#N)n1 [Cyanazine, reference compound]
% Control (Galium aparine; [5]): 5%
% Control (Galium aparine; Galium aparine (1.whorl), 240 g a.i./ha): 10%
% Control (Galium aparine; [6]): 0%
% Control (Galium aparine; Galium aparine (2.whorl), 240 g a.i./ha): 10%
% Control (Galium aparine; Galium aparine (3.whorl), 120 g a.i./ha): 0%
% Control (Galium aparine; Galium aparine (3.whorl), 240 g a.i./ha): 5%
% Control (Matricaria inodora; 120 g a.i./ha): 52%
% Control (Matricaria inodora; 240 g a.i./ha): 85%
% Control (Papaver rhoeas; 120 g a.i./ha): 0%
% Control (Papaver rhoeas; 240 g a.i./ha): 0%
% Control (Polygonum convolvulus; 120 g a.i./ha): 60%
% Control (Stellaria media; 120 g a.i./ha): 61%
% Control (Stellaria media; 240 g a.i./ha): 72%

Nc1c(Cl)c(F)nc(OCC(=O)O)c1Cl [Fluroxypyr, reference compound]
% Control (Matricaria inodora; 90 g a.i./ha): 45%
% Control (Papaver rhoeas; 90 g a.i./ha): 0%
% Control (Polygonum convolvulus; 90 g a.i./ha): 45%
% Control (Polygonum lapathifolium; 120 g a.i./ha): 80%
% Control (Stellaria media; 120 g a.i./ha): 67%
% Control (Veronica persica; 120 g a.i./ha): 52%
